Laboratory results published in patent US5010093A, “Nitric ester derivative” (Fujisawa Pharmaceutical Co., Ltd., priority 1987, dated 1991).
Values after ≈ are worked out from the molar mass of the structure shown.

Legend:
[1] = test system: Isolated Rat Aorta; assay: Effect on Isolated Rat Aorta (relaxation of norepinephrine-contracted aortic strips); conditions: aortic spiral strips, norepinephrine 3.2 ×10^-8 M tonus, 37° C., effect of papaverine 10^-4 M=100%, read-out: ED50 value
Description: The aortas were removed from rats. Spiral strips approximately 10 mm in length were cut from the aorta, and suspended in an organ bath containing Tyrode's solution at 37° C., aerated with a gas mixture of 95% oxygen and 5% carbon dioxide. The tonus of the strips was recorded on a polygraph with a force-displacement transducer. After the initial resting tension was adjusted to 0.5 g, norepinephrine 3.2 ×10^-8 M was added to the organ bath to increase the tonus of the aortic strips to 0.9-1.1 g.
The cumulative concentrations of the test compound were then added, and finally papaverine 10^-4 M was given to determine maximum relaxation. ED50 values were calculated by interpolation from the mean cumulative dose-activity curves (effect of papaverine 10^-4 M=100%).
N-(2-Nitrooxyethyl)-2-methyl-4-thiazolecarboxamide hydrochloride (hereinafter referred to as Compound .circle.1 ), and N-(2-Nitrooxyethyl)-3-pyridinecarboxamide (Reference Compound A) (hereinafter referred to as Compound A).

[2] = test system: Normotensive Rats; assay: Effect on Normotensive Rats (duration of hypotensive effect after oral dosing); format: in vivo; conditions: 10 mg/kg, normotensive male S.D. rats fasted about 18 hours
Description: 7 to 9-week-old male S.D. rats with mean arterial blood pressure of 100-125 mmHg, weighing 245-375 g, were used. The animals were cannulated in the left femoral artery and the mean blood pressure and heart rate were measured with a pressure-transducer. The drugs were given orally. The animals were deprived of food for about 18 hours before oral dosing. The test drugs were dissolved in saline or ethanol, and given in oral doses of 10 mg/kg. The duration of half the maximum hypotensive effect was calculated as T 1/2. Compound 1 ,and Compound A.

| EC50 [1] | SMILES | T 1/2 (duration of half the maximum hypotensive effect) [2] |
| --- | --- | --- |
| 0.091 µg/mL (≈ 0.394 µM) | Cc1nc(C(=O)NCCO[N+](=O)[O-])cs1 [.circle.1] | 1.67 h |
| 0.94 µg/mL (≈ 4.45 µM) | O=C(NCCO[N+](=O)[O-])c1cccnc1 [Compound A, N-(2-Nitrooxyethyl)-3-pyridinecarboxamide] | 0.833 h |
